Tests used:
PSMA+ PC3 PIP cells [1] = test: Cell binding, uptake and internalization in PSMA+ PC3 PIP cells; type: cell-based
[2] = system: PSMA-negative PC3 flu cells; test: Cell uptake in PSMA-negative PC3 flu cells; type: cell-based; conditions: 4 h incubation, n = 3
PSMA+ PC3 PIP cells [3] = test: Clonogenic assay in PSMA+ PC3 PIP cells; type: cell-based; conditions: 10 μCi dose
PSMA-PC3 flu cells = test: Clonogenic assay in PSMA- PC3 flu cells; type: cell-based; conditions: 10 μCi dose
PSMA+ PC3 PIP tumor [4] = test: Treatment study (SPECT imaging and therapeutic effect) in tumor-bearing mice; type: in vivo
Procedure: A single dose of 3 mCi was injected via tail-vain injection in mice (n=10) bearing PSMA+ PC3 PIP tumor (size 3-5 mm). Saline was injected to another group of mice (n=10) for control study. Mice were monitored for body weight tumor size measure for two times per week. The control group of mice was euthanized after 4-8 weeks as the size of tumors over were >12 mm.

PSMA+ PC3 PIP tumor [5] = test: In vivo tissue biodistribution; conditions: for tissue biodistribution PC-3 Flu: PC-3 Flu tumor; for tissue biodistribution PC-3 PIP: PC-3 PIP tumor

SMILES: O=C([O-])CN1CCN(CC(=O)[O-])CCN(CC(=O)O)C(Cc2ccc(NC(=S)NCCCCC(=O)N(CCCC[C@H](NC(=O)N[C@@H](CCC(=O)O)C(=O)O)C(=O)O)Cc3ccc(Br)cc3)cc2)CN(CC(=O)[O-])CC1.[177Lu+3] (stereo partly drawn) [^177Lu-1]
- internalized activity compared to ^177Lu-3 (PSMA+ PC3 PIP cells [1]): ~2 fold
- Cell surface (PSMA+ PC3 PIP cells [1]; 4 h incubation, n = 3): 27.68 percent incubated dose per one million cells
- Cell uptake PSMA + PC3 PIP (PSMA+ PC3 PIP cells [1]; 4 h incubation, n = 3): 42.60 percent incubated dose per one million cells
- Internalization (cell lysate) (PSMA+ PC3 PIP cells [1]; 4 h incubation, n = 3): 15.88 percent incubated dose per one million cells
- uptake in PSMA+ PC3 cells (in words) (PSMA+ PC3 PIP cells [1]; compared to ^177Lu-3): higher uptake in PSMA+ PC3 cells compared to ^177Lu-3
- Cell uptake PSMA − PC3 flu [2]: 0.09 percent incubated dose per one million cells
- cell killing efficacy (PSMA+ PC3 PIP cells [3]): about 100%
- toxicity for PSMA-PC3 flu cells (in words) (PSMA-PC3 flu cells): no significant toxicity
- remission of PSMA+ PC3 tumor bearing mice (PSMA+ PC3 PIP tumor [4]; mouse, in vivo): about 50%
- body weight during treatment (in words) (PSMA+ PC3 PIP tumor [4]; single dose of 3 mCi): regained after 2 weeks
- survival of mice in complete remission (PSMA+ PC3 PIP tumor [4]; single dose of 3 mCi): more than five months
- therapeutic efficacy compared to the control group using saline (in words) (PSMA+ PC3 PIP tumor [4]; single dose of 3 mCi): decrease in tumor volume
- mice showing complete eradication of tumors (PSMA+ PC3 PIP tumor [4]; single dose of 3 mCi via tail vein, n=10): 50%
- number of mice with complete remission of the disease (PSMA+ PC3 PIP tumor [4]; single dose of 3 mCi, n=10): Five
- tissue biodistribution Bladder (PSMA+ PC3 PIP tumor [5]; 2 h): 3.39 ± 2.78 percent injected dose per gram
- tissue biodistribution Bladder (PSMA+ PC3 PIP tumor [5]; 24 h): 0.31 ± 0.13 percent injected dose per gram
- tissue biodistribution Bladder (PSMA+ PC3 PIP tumor [5]; 48 h): 0.12 ± 0.07 percent injected dose per gram
- tissue biodistribution Bladder (PSMA+ PC3 PIP tumor [5]; 72 h): 0.06 ± 0.03 percent injected dose per gram
- tissue biodistribution Blood (PSMA+ PC3 PIP tumor [5]; 2 h): 0.68 ± 0.25 percent injected dose per gram
- tissue biodistribution Blood (PSMA+ PC3 PIP tumor [5]; 24 h): 0.01 ± 0.01 percent injected dose per gram
- tissue biodistribution Blood (PSMA+ PC3 PIP tumor [5]; 48 h): 0.00 ± 0.01 percent injected dose per gram
- tissue biodistribution Blood (PSMA+ PC3 PIP tumor [5]; 72 h): 0.00 ± 0.04 percent injected dose per gram
- tissue biodistribution Fat (PSMA+ PC3 PIP tumor [5]; 2 h): 0.35 ± 0.10 percent injected dose per gram
- tissue biodistribution Fat (PSMA+ PC3 PIP tumor [5]; 24 h): 0.08 ± 0.15 percent injected dose per gram
- tissue biodistribution Fat (PSMA+ PC3 PIP tumor [5]; 48 h): 0.01 ± 0.01 percent injected dose per gram
- tissue biodistribution Fat (PSMA+ PC3 PIP tumor [5]; 72 h): 0.06 ± 0.07 percent injected dose per gram
- tissue biodistribution Heart (PSMA+ PC3 PIP tumor [5]; 2 h): 0.28 ± 0.08 percent injected dose per gram
- tissue biodistribution Heart (PSMA+ PC3 PIP tumor [5]; 24 h): 0.02 ± 0.05 percent injected dose per gram
- tissue biodistribution Heart (PSMA+ PC3 PIP tumor [5]; 48 h): 0.01 ± 0.00 percent injected dose per gram
- tissue biodistribution Heart (PSMA+ PC3 PIP tumor [5]; 72 h): 0.01 ± 0.00 percent injected dose per gram
- tissue biodistribution Kidney (PSMA+ PC3 PIP tumor [5]; 2 h): 87.10 ± 25.99 percent injected dose per gram
- tissue biodistribution Kidney (PSMA+ PC3 PIP tumor [5]; 24 h): 1.65 ± 0.30 percent injected dose per gram
- tissue biodistribution Kidney (PSMA+ PC3 PIP tumor [5]; 48 h): 1.02 ± 0.58 percent injected dose per gram
- tissue biodistribution Kidney (PSMA+ PC3 PIP tumor [5]; 72 h): 0.62 ± 0.04 percent injected dose per gram
- tissue biodistribution Liver (PSMA+ PC3 PIP tumor [5]; 2 h): 0.39 ± 0.13 percent injected dose per gram
- tissue biodistribution Liver (PSMA+ PC3 PIP tumor [5]; 24 h): 0.11 ± 0.01 percent injected dose per gram
- tissue biodistribution Liver (PSMA+ PC3 PIP tumor [5]; 48 h): 0.09 ± 0.02 percent injected dose per gram
- tissue biodistribution Liver (PSMA+ PC3 PIP tumor [5]; 72 h): 0.07 ± 0.00 percent injected dose per gram
- tissue biodistribution Lung (PSMA+ PC3 PIP tumor [5]; 2 h): 1.12 ± 0.33 percent injected dose per gram
- tissue biodistribution Lung (PSMA+ PC3 PIP tumor [5]; 24 h): 0.06 ± 0.01 percent injected dose per gram
- tissue biodistribution Lung (PSMA+ PC3 PIP tumor [5]; 48 h): 0.04 ± 0.01 percent injected dose per gram
- tissue biodistribution Lung (PSMA+ PC3 PIP tumor [5]; 72 h): 0.04 ± 0.02 percent injected dose per gram
- tissue biodistribution Muscle (PSMA+ PC3 PIP tumor [5]; 2 h): 0.68 ± 0.98 percent injected dose per gram
- tissue biodistribution Muscle (PSMA+ PC3 PIP tumor [5]; 24 h): 0.01 ± 0.00 percent injected dose per gram
- tissue biodistribution Muscle (PSMA+ PC3 PIP tumor [5]; 48 h): 0.00 ± 0.00 percent injected dose per gram
- tissue biodistribution Muscle (PSMA+ PC3 PIP tumor [5]; 72 h): 0.02 ± 0.02 percent injected dose per gram
- tissue biodistribution PC-3 Flu (PSMA+ PC3 PIP tumor [5]; 2 h): 0.39 ± 0.03 percent injected dose per gram
- tissue biodistribution PC-3 Flu (PSMA+ PC3 PIP tumor [5]; 24 h): 0.10 ± 0.02 percent injected dose per gram
- tissue biodistribution PC-3 Flu (PSMA+ PC3 PIP tumor [5]; 48 h): 0.05 ± 0.01 percent injected dose per gram
- tissue biodistribution PC-3 Flu (PSMA+ PC3 PIP tumor [5]; 72 h): 0.06 ± 0.01 percent injected dose per gram
- tissue biodistribution PC-3 PIP (PSMA+ PC3 PIP tumor [5]; 2 h): 55.04 ± 7.23 percent injected dose per gram
- tissue biodistribution PC-3 PIP (PSMA+ PC3 PIP tumor [5]; 24 h): 40.61 ± 7.00 percent injected dose per gram
- tissue biodistribution PC-3 PIP (PSMA+ PC3 PIP tumor [5]; 48 h): 27.00 ± 7.03 percent injected dose per gram
- tissue biodistribution PC-3 PIP (PSMA+ PC3 PIP tumor [5]; 72 h): 24.90 ± 2.27 percent injected dose per gram
- tissue biodistribution Pancreas (PSMA+ PC3 PIP tumor [5]; 2 h): 0.28 ± 0.09 percent injected dose per gram
- tissue biodistribution Pancreas (PSMA+ PC3 PIP tumor [5]; 24 h): 0.02 ± 0.00 percent injected dose per gram
- tissue biodistribution Pancreas (PSMA+ PC3 PIP tumor [5]; 48 h): 0.01 ± 0.01 percent injected dose per gram
- tissue biodistribution Pancreas (PSMA+ PC3 PIP tumor [5]; 72 h): 0.01 ± 0.00 percent injected dose per gram
- tissue biodistribution Salivary gland (Sal. Gl) (PSMA+ PC3 PIP tumor [5]; 2 h): 1.09 ± 0.08 percent injected dose per gram
- tissue biodistribution Salivary gland (Sal. Gl) (PSMA+ PC3 PIP tumor [5]; 24 h): 0.09 ± 0.02 percent injected dose per gram
- tissue biodistribution Salivary gland (Sal. Gl) (PSMA+ PC3 PIP tumor [5]; 48 h): 0.05 ± 0.03 percent injected dose per gram
- tissue biodistribution Salivary gland (Sal. Gl) (PSMA+ PC3 PIP tumor [5]; 72 h): 0.05 ± 0.02 percent injected dose per gram
- tissue biodistribution Sm. Int. (PSMA+ PC3 PIP tumor [5]; 2 h): 0.51 ± 0.32 percent injected dose per gram
- tissue biodistribution Sm. Int. (PSMA+ PC3 PIP tumor [5]; 24 h): 0.03 ± 0.01 percent injected dose per gram
- tissue biodistribution Sm. Int. (PSMA+ PC3 PIP tumor [5]; 48 h): 0.02 ± 0.00 percent injected dose per gram
- tissue biodistribution Sm. Int. (PSMA+ PC3 PIP tumor [5]; 72 h): 0.02 ± 0.01 percent injected dose per gram
- tissue biodistribution Spleen (PSMA+ PC3 PIP tumor [5]; 2 h): 3.76 ± 0.70 percent injected dose per gram
- tissue biodistribution Spleen (PSMA+ PC3 PIP tumor [5]; 24 h): 0.15 ± 0.05 percent injected dose per gram
- tissue biodistribution Spleen (PSMA+ PC3 PIP tumor [5]; 48 h): 0.08 ± 0.03 percent injected dose per gram
- tissue biodistribution Spleen (PSMA+ PC3 PIP tumor [5]; 72 h): 0.08 ± 0.02 percent injected dose per gram
- tissue biodistribution Stomach (PSMA+ PC3 PIP tumor [5]; 2 h): 0.87 ± 0.63 percent injected dose per gram
- tissue biodistribution Stomach (PSMA+ PC3 PIP tumor [5]; 24 h): 0.04 ± 0.01 percent injected dose per gram
- tissue biodistribution Stomach (PSMA+ PC3 PIP tumor [5]; 48 h): 0.05 ± 0.04 percent injected dose per gram
- tissue biodistribution Stomach (PSMA+ PC3 PIP tumor [5]; 72 h): 0.04 ± 0.00 percent injected dose per gram
- uptake in PSMA+ PC3 PIP tumor (in words) (PSMA+ PC3 PIP tumor [5]; mouse, in vivo): higher uptake and retention in PSMA+ PC3 PIP tumor uptake than ^177Lu-2
